The test system of experiment [1] is ducksalad. The experiment in a line: Test B flooded paddy test. The experiment is classed as in vivo, Heteranthera limosa. The conditions noted are these: 250 g ai/ha, Flood, 13 days, 0 to 100 scale (0 no effect, 100 complete control). An outline of the steps:
(§1)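 Application into standing water (3 cm above soil) at the two-leaf stage; flood depth held constant. Evaluation: day 13, visual comparison with controls, 0 = no injury, 100 = complete control.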

Experiment [2] relates to Pigweed, Redroot. Briefly: Test A postemergence. The experiment is classed as in vivo, Amaranthus retroflexus. An outline of the steps: (§2)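 Weeds and crops in loam–sand blend were sprayed preemergence onto soil or postemergence at 2–10 cm (one- to two-leaf stage). Test chemicals were in a non-phytotoxic solvent with surfactant. After 10 days in the greenhouse, injury was rated visually against untreated controls on a 0 (no effect) to 100 (complete control) scale.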

Experiment [3] has as its system rice. Briefly: Test B flooded paddy test. Format: in vivo, Oryza sativa. The conditions noted are these: 250 g ai/ha, Flood, 13 days, 0 to 100 scale (0 no effect, 100 complete control). The method in brief: as §1
In experiment [4] the test system is wheat. Briefly: Test A postemergence. The experiment is classed as in vivo, Triticum aestivum. The method in brief:
as §2

In experiment [5] the test system is sedge, umbrella. Briefly: Test B flooded paddy test. Format: in vivo, Cyperus difformis. The conditions noted are these: 250 g ai/ha, Flood, 13 days, 0 to 100 scale (0 no effect, 100 complete control). The method in brief:
as §1

Experiment [6] has as its system ragweed. The experiment in a line: Test A postemergence. Format: in vivo, Ambrosia artemisiifolia. An outline of the steps:
as §2

The subject of experiment [7] is ryegrass, Italian. The experiment in a line: Test A preemergence. Format: in vivo, Lolium multiflorum. The method in brief: as §2
Experiment [8] relates to barnyardgrass. Briefly: Test A preemergence. The experiment is classed as in vivo, Echinochloa crusgalli. The method in brief:
as §2

Experiment [9] deals with barnyardgrass. Briefly: Test B flooded paddy test. Format: in vivo, Echinochloa crus-galli. The conditions noted are these: 250 g ai/ha, Flood, 13 days, 0 to 100 scale (0 no effect, 100 complete control). An outline of the steps:
as §1

In experiment [10] the test system is foxtail, giant. Briefly: Test A preemergence. Format: in vivo, Setaria faberi. The method in brief:
as §2

The test system of experiment [11] is ryegrass, Italian. Briefly: Test A postemergence. Format: in vivo, Lolium multiflorum. An outline of the steps: as §2
Experiment [12] deals with blackgrass. Briefly: Test A postemergence. The experiment is classed as in vivo, Alopecurus myosuroides. The method in brief: as §2
Experiment [13] deals with foxtail, giant. The experiment in a line: Test A postemergence. The experiment is classed as in vivo, Setaria faberi. The method in brief:
as §2

Experiment [14] concerns Pigweed, Redroot. Briefly: Test A preemergence. Format: in vivo, Amaranthus retroflexus. An outline of the steps: as §2
The test system of experiment [15] is kochia. The experiment in a line: Test A postemergence. Format: in vivo, Bassia scoparia. The method in brief:
as §2

Experiment [16] has as its system barnyardgrass. Briefly: Test A postemergence. Format: in vivo, Echinochloa crusgalli. An outline of the steps: as §2
The test system of experiment [17] is kochia. Briefly: Test A preemergence. The experiment is classed as in vivo, Bassia scoparia. An outline of the steps:
as §2

The subject of experiment [18] is ragweed. Briefly: Test A preemergence. The experiment is classed as in vivo, Ambrosia artemisiifolia. An outline of the steps:
as §2

Experiment [19] has as its system galium. Briefly: Test A postemergence. Format: in vivo, Galium aparine. An outline of the steps:
as §2

For experiment [20], the system named is corn. The experiment in a line: Test A postemergence. Format: in vivo, Zea mays. An outline of the steps: as §2
The mark [21] stands for this setting: 1000 g ai/ha, Postemergence, 0 to 100 scale.
[22] abbreviates: 1000 g ai/ha, 0 to 100 scale (0 no effect, 100 complete control), 10 days.
Where [23] appears, read: 125 g ai/ha, postemergence, 10 days, visual injury, 0 to 100 scale (0 no effect, 100 complete control).
The mark [24] stands for this setting: 500 g ai/ha, Postemergence, 0 to 100 scale.
Setting [25] is: 125 g ai/ha, visual injury after 10 days, 0 to 100 scale, 0 is no effect, 100 is complete control.
The mark [26] stands for this setting: 500 g ai/ha, 0 to 100 scale (0 no effect, 100 complete control), 10 days.

Molecules are shown by their SMILES.

For `Cc1cccc2c1OC(C)CN2C(=O)c1cccc(-n2cncn2)c1` (centres unmarked) [Compound 21], the “Plant response rating, Ducksalad” value in [1] is on record as 65. Also, the results for the “Plant response rating, Pigweed, Redroot” value in [2] (setting [21]) and in experiment [14] (setting [22]) were 60 and 100, respectively. The “Plant response rating, Rice” value in experiment [3] came out at 0. Moreover, the “Plant response rating, Wheat” value in experiment [4] (setting [21]) is 70. Moreover, the “Plant response rating, Sedge, Umbrella” value in experiment [5] was 35. For the same compound, the “Plant response rating, Ragweed” value was determined as 40 in experiment [6] (setting [21]) and 70 in [18] (setting [22]). Also, the “Plant response rating, Ryegrass, Italian” value in experiment [7] (setting [22]) is on record as 100; in [11] (setting [21]) it was 80. Moreover, the “Plant response rating, Barnyardgrass” value in [8] (setting [22]) stood at 100; in experiment [9], 0; in experiment [16] (setting [21]) it was 90. Further, the “Plant response rating, Foxtail, Giant” value in experiment [10] (setting [22]) stood at 100; in experiment [13] (setting [21]) it was 90. The “Plant response rating, Blackgrass” value in experiment [12] (setting [21]) is 80. The figures for the “Plant response rating, Kochia” value in [15] (setting [21]) and in experiment [17] (setting [22]) were 40 and 70, respectively. Also, the “Plant response rating, Galium” value in experiment [19] (setting [21]) was determined as 80. The “Plant response rating, Corn” value in [20] (setting [21]) is listed as 90.

As for `CC1CN(C(=O)c2ccnc(-n3cncn3)c2)c2ccccc2O1` (centres unmarked) [Compound 19], the “Plant response rating, Ducksalad” value in experiment [1] turned out to be 0. In addition, the “Plant response rating, Pigweed, Redroot” value was 40 in [2] (setting [21]) and 0 in [14] (setting [22]). Also, in experiment [3], the “Plant response rating, Rice” value was determined as 0. Further, the “Plant response rating, Wheat” value in experiment [4] (setting [21]) is listed as 70. Also, in experiment [5], the “Plant response rating, Sedge, Umbrella” value worked out at 0. The entries for the “Plant response rating, Ragweed” value in experiment [6] (setting [21]) and in experiment [18] (setting [22]) were 0 and 80, respectively. In addition, the “Plant response rating, Ryegrass, Italian” value in experiment [7] (setting [22]) was 80; in [11] (setting [21]), 60. Also, the results for the “Plant response rating, Barnyardgrass” value in experiment [8] (setting [22]), in experiment [9] and in experiment [16] (setting [21]) were 90, 0 and 80, respectively. Further, the figures for the “Plant response rating, Foxtail, Giant” value in experiment [10] (setting [22]) and in experiment [13] (setting [21]) were 100 and 60, respectively. In addition, the “Plant response rating, Blackgrass” value in [12] (setting [21]) is 70. For the same compound, the “Plant response rating, Kochia” value is reported as 30 in experiment [15] (setting [21]) and 60 in [17] (setting [22]). Moreover, the “Plant response rating, Galium” value in [19] (setting [21]) was determined as 90. Besides, in [20] (setting [21]), the “Plant response rating, Corn” value was found to be 50.

Regarding `C[C@H]1CN(C(=O)c2cccc(-n3cnnn3)c2)c2cccc(Cl)c2O1` [Compound 115], in experiment [1], the “Plant response rating, Ducksalad” value was found to be 0. Further, the “Plant response rating, Pigweed, Redroot” value in experiment [2] (setting [21]) is listed as 30; in experiment [14] (setting [22]), 80. Further, the “Plant response rating, Rice” value in experiment [3] is given as 0. Also, the “Plant response rating, Wheat” value in experiment [4] (setting [21]) stood at 50. In addition, the “Plant response rating, Sedge, Umbrella” value in [5] is recorded as 0. For the same compound, the “Plant response rating, Ragweed” value is reported as 0 in experiment [6] (setting [21]) and 30 in experiment [18] (setting [22]). The “Plant response rating, Ryegrass, Italian” value in experiment [7] (setting [22]) stood at 90; in experiment [11] (setting [21]), 60. The “Plant response rating, Barnyardgrass” value was determined as 70 in [8] (setting [22]), 0 in experiment [9] and 50 in [16] (setting [21]). Also, the figures for the “Plant response rating, Foxtail, Giant” value in [10] (setting [22]) and in [13] (setting [21]) were 90 and 40, respectively. For the same compound, the “Plant response rating, Blackgrass” value in experiment [12] (setting [21]) was determined as 50. Also, the figures for the “Plant response rating, Kochia” value in experiment [15] (setting [21]) and in experiment [17] (setting [22]) were 0 and 40, respectively. Besides, the “Plant response rating, Galium” value in experiment [19] (setting [21]) is reported as 70. Moreover, the “Plant response rating, Corn” value in experiment [20] (setting [21]) is reported as 40.

Consider `CC1CN(C(=O)c2cccc(-n3cncn3)c2)c2cccc(F)c2O1` (centres unmarked) [Compound 20], for which, in [1], the “Plant response rating, Ducksalad” value is 85. Further, the “Plant response rating, Pigweed, Redroot” value in experiment [2] (setting [21]) is on record as 30; in experiment [14] (setting [22]) it was 80. The “Plant response rating, Rice” value in [3] is on record as 0. Moreover, in experiment [4] (setting [21]), the “Plant response rating, Wheat” value turned out to be 70. The “Plant response rating, Sedge, Umbrella” value in experiment [5] is listed as 35. Further, the “Plant response rating, Ragweed” value in experiment [6] (setting [21]) is recorded as 30; in [18] (setting [22]), 80. For the same compound, the entries for the “Plant response rating, Ryegrass, Italian” value in [7] (setting [22]) and in experiment [11] (setting [21]) were 100 and 70, respectively. Also, the “Plant response rating, Barnyardgrass” value is on record as 90 in [8] (setting [22]), 0 in experiment [9] and 90 in [16] (setting [21]). Besides, the “Plant response rating, Foxtail, Giant” value in experiment [10] (setting [22]) worked out at 100; in experiment [13] (setting [21]), 90. Moreover, in [12] (setting [21]), the “Plant response rating, Blackgrass” value is listed as 70. Also, the “Plant response rating, Kochia” value in experiment [15] (setting [21]) is recorded as 30; in [17] (setting [22]), 80. Also, in experiment [19] (setting [21]), the “Plant response rating, Galium” value stood at 90. In experiment [20] (setting [21]), the “Plant response rating, Corn” value is 60.

For `CCC1CN(C(=O)c2cncc(-n3cncn3)c2)c2cccc(Cl)c2O1` (racemic) [Compound 6], the “Plant response rating, Ducksalad” value in [1] is 0. Besides, the “Plant response rating, Pigweed, Redroot” value in [2] (setting [23]) was 0; in experiment [2] (setting [24]), 30; in experiment [14] (setting [25]), 0; in experiment [14] (setting [26]), 20. Moreover, the “Plant response rating, Rice” value in experiment [3] is recorded as 0. In addition, the “Plant response rating, Wheat” value in experiment [4] (setting [23]) and in [4] (setting [24]) was 0 in each case. The “Plant response rating, Sedge, Umbrella” value in [5] came out at 0. Further, the “Plant response rating, Ragweed” value in experiment [6] (setting [23]) came to 0; in experiment [6] (setting [24]), 0; in experiment [18] (setting [25]) it was 0; in experiment [18] (setting [26]) it was 30. Also, the “Plant response rating, Ryegrass, Italian” value in experiment [7] (setting [25]) worked out at 20; in [7] (setting [26]) it was 50; in [11] (setting [23]), 50; in [11] (setting [24]), 40. Further, the “Plant response rating, Barnyardgrass” value in experiment [8] (setting [25]) is recorded as 0; in experiment [8] (setting [26]), 0; in experiment [9], 0; in experiment [16] (setting [23]), 0; in experiment [16] (setting [24]), 10. For the same compound, the “Plant response rating, Foxtail, Giant” value is 0 in [10] (setting [25]), 60 in experiment [10] (setting [26]), 0 in [13] (setting [23]) and 10 in experiment [13] (setting [24]). Further, the “Plant response rating, Blackgrass” value in experiment [12] (setting [23]) and in [12] (setting [24]) was 0 throughout. The “Plant response rating, Kochia” value in experiment [15] (setting [23]), in experiment [15] (setting [24]), in [17] (setting [25]) and in experiment [17] (setting [26]) was 0 throughout. Also, the “Plant response rating, Galium” value is on record as 0 in experiment [19] (setting [23]) and 30 in experiment [19] (setting [24]). Besides, the “Plant response rating, Corn” value in [20] (setting [23]) and in [20] (setting [24]) was 0 throughout.

Source of the values: patent US20260262643A1, “HERBICIDAL BENZOXAZINES” (FMC CORPORATION, priority 2022, published 2026).
